{
  "source": "patent US10577378B2",
  "about": "“EIF4A-inhibiting compounds and methods related thereto” (eFFECTOR Therapeutics, Inc., priority 2015, dated 2020)",
  "data": [
    {"tested_on": "MDA-MB-231 human breast cancer cells", "assay": "Cell proliferation assay (CellTiter-Glo, 72 hours treatment)", "assay_type": "cell-based", "conditions": "Homo sapiens; MDA-MB-231 cells, 72 hours at 37° C., CellTiter-Glo; read-out: MDA-MB-231 cell proliferation assay (IC50)", "procedure,_shortened": "(§1)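 IC50 categories: under 100 nM +++, 100–1000 nM ++, above 1000 nM +, derived by sigmoidal curve fitting of CellTiter-Glo luminescence. Cells plated at 2,500 per well, dosed the following day and exposed 72 h at 37 °C versus DMSO control.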", "units": {"IC50": "nM"}, "values": [
      {"molecule": "N#Cc1ccc([C@@]23Oc4cc(Cl)cnc4[C@]2(O)[C@H](O)[C@H](c2ncco2)[C@H]3c2ccccc2)cc1", "note": "(racemic) [26F, Rac-4-((5aR,6S,7R,8R,8aS)-3-chloro-8,8a-dihydroxy-7-(oxazol-2-yl)-6-phenyl-6,7,8,8a-tetrahydro-5aH-cyclopenta[4,5]furo[3,2-b]pyridin-5a-yl)benzonitrile]", "IC50": "100 to 1000"},
      {"molecule": "COc1cncc2c1[C@]1(O)[C@H](O)[C@H](CN(C)CC(C)(C)O)[C@@H](c3ccccc3)[C@]1(c1ccc(C#N)cc1)O2", "note": "(single isomer, unassigned) [252F]", "IC50": "< 100"},
      {"molecule": "CN(C)C(=O)[C@H]1[C@@H](O)[C@@]2(O)c3ccncc3O[C@@]2(c2ccc(C#N)cc2)[C@@H]1c1ccccc1", "note": "(single isomer, unassigned) [95F]", "IC50": "100 to 1000"},
      {"molecule": "COc1cncc2c1[C@]1(O)[C@H](O)[C@H](CN3CCOCC3)[C@@H](c3ccccc3)[C@]1(c1ccc(C#N)cc1)O2", "note": "(single isomer, unassigned) [110F]", "IC50": "100 to 1000"},
      {"molecule": "COc1cncc2c1[C@]1(O)[C@H](O)[C@H](C(=O)N3CCC(F)(F)C3)[C@@H](c3ccccc3)[C@]1(c1ccc(Br)cc1)O2", "note": "(racemic) [279F, Rac-((4bS,5R,6R,7S,7aR)-7a-(4-bromophenyl)-4b,5-dihydroxy-4-methoxy-7-phenyl-4b,6,7,7a-tetrahydro-5H-cyclopenta[4,5]furo[2,3-c]pyridin-6-yl)(3,3-difluoropyrrolidin-1-yl)methanone]", "IC50": "< 100"},
      {"molecule": "CS(=O)(=O)[C@H]1[C@@H](O)[C@@]2(O)c3ncc(Cl)cc3O[C@@]2(c2ccc(C#N)cc2)[C@@H]1c1ccccc1", "note": "(racemic) [85F, Rac-4-((5aR,6S,7R,8S,8aS)-3-chloro-8,8a-dihydroxy-7-(methylsulfonyl)-6-phenyl-6,7,8,8a-tetrahydro-5aH-cyclopenta[4,5]furo[3,2-b]pyridin-5a-yl)benzonitrile]", "IC50": "> 1000"},
      {"molecule": "NC[C@H]1C[C@@H](c2ccccc2)[C@]2(c3ccc(Br)cc3)Oc3cc(Cl)cnc3[C@]12O", "note": "(racemic) [174F, Rac-(5aR,6S,8R,8aR)-8-(aminomethyl)-5a-(4-bromophenyl)-3-chloro-6-phenyl-5a,6,7,8-tetrahydro-8aH-cyclopenta[4,5]furo[3,2-b]pyridin-8a-ol]", "IC50": "< 100"},
      {"molecule": "CN(C)C(=O)[C@H]1[C@@H](O)[C@@]2(O)c3nn(C)cc3O[C@@]2(c2ccc(C#N)cc2)[C@@H]1c1ccccc1", "note": "(single isomer, unassigned) [23F]", "IC50": "> 1000"},
      {"molecule": "N#C[C@H]1[C@@H](O)[C@@]2(O)c3ncc(Cl)cc3O[C@@]2(c2ccc(Br)cc2)[C@@H]1c1ccccc1", "note": "(racemic) [27F, rac-(5aR,6S,7S,8R,8aS)-5a-(4-bromophenyl)-3-chloro-8,8a-dihydroxy-6-phenyl-5a,7,8,8a-tetrahydro-6H-cyclopenta[4,5]furo[3,2-b]pyridine-7-carbonitrile]", "IC50": "100 to 1000"},
      {"molecule": "COc1ccc(Cn2cc3c(n2)[C@]2(O)[C@H](O)[C@H](C(=O)N(C)C)[C@@H](c4ccccc4)[C@]2(c2ccc(C#N)cc2)O3)cc1", "note": "(racemic) [99F, Rac-(4aR,5S,6R,7R,7aS)-4a-(4-cyanophenyl)-7,7a-dihydroxy-2-(4-methoxybenzyl)-N,N-dimethyl-5-phenyl-2,4a,5,6,7,7a-hexahydrocyclopenta[4,5]furo[3,2-c]pyrazole-6-carboxamide]", "IC50": "> 1000"},
      {"molecule": "COc1nccc2c1[C@]1(O)[C@H](O)[C@H](C(=O)N(C)C)[C@@H](c3ccccc3)[C@]1(c1ccc(C#N)cc1)O2", "note": "(racemic) [19F, rac-(5aR,6S,7R,8R,8aS)-5a-(4-cyanophenyl)-8,8a-dihydroxy-1-methoxy-N,N-dimethyl-6-phenyl-5a,7,8,8a-tetrahydro-6H-cyclopenta[4,5]furo[3,2-c]pyridine-7-carboxamide]", "IC50": "100 to 1000"},
      {"molecule": "COc1cncc2c1[C@]1(O)[C@H](O)[C@H](C(=O)N(C)Cc3ccnn3C)[C@@H](c3ccccc3)[C@]1(c1ccc(Br)cc1)O2", "note": "(racemic) [249F, Rac-(4bS,5R,6R,7S,7aR)-7a-(4-bromophenyl)-4b,5-dihydroxy-4-methoxy-N-methyl-N-((1-methyl-1H-pyrazol-5-yl)methyl)-7-phenyl-4b,6,7,7a-tetrahydro-5H-cyclopenta[4,5]furo[2,3-c]pyridine-6-carboxamide]", "IC50": "< 100"},
      {"molecule": "C#CC1(O)C(C(=O)N(C)C)[C@@H](c2ccccc2)[C@]2(c3ccc(Br)cc3)Oc3cc(Cl)cnc3[C@]12O", "note": "(mixture of isomers) [190F, rac-(5aR,6S,8aS)-5a-(4-bromophenyl)-3-chloro-8-ethynyl-8,8a-dihydroxy-N,N-dimethyl-6-phenyl-5a,7,8,8a-tetrahydro-6H-cyclopenta[4,5]furo[3,2-b]pyridine-7-carboxamide]", "IC50": "100 to 1000"},
      {"molecule": "N#Cc1ccc([C@@]23Oc4cc(Cl)cnc4[C@]2(O)[C@@H]2OC[C@@H]2[C@H]3c2ccccc2)cc1", "note": "(racemic) [61F, rac-4-((2aS,3S,3aR,8bS,8cR)-6-chloro-8b-hydroxy-3-phenyl-2a,3,8b,8c-tetrahydrooxeto[3″,2″:4′,5′]cyclopenta[1′,2′:4,5]furo[3,2-b]pyridin-3a(2H)-yl)benzonitrile]", "IC50": "> 1000"},
      {"molecule": "COc1cncc2c1[C@]1(O)[C@H](O)[C@H](C(=O)N3CC4CC(C3)O4)[C@@H](c3ccccc3)[C@]1(c1ccc(Br)cc1)O2", "note": "(racemic) [273F, Rac-(6-oxa-3-azabicyclo[3.1.1]heptan-3-yl)((4bS,5R,6R,7S,7aR)-7a-(4-bromophenyl)-4b,5-dihydroxy-4-methoxy-7-phenyl-4b,6,7,7a-tetrahydro-5H-cyclopenta[4,5]furo[2,3-c]pyridin-6-yl)methanone]", "IC50": "< 100"},
      {"molecule": "COc1cncc2c1[C@]1(O)[C@@H](CNCc3ccncc3)[C@H](CO)[C@@H](c3ccccc3)[C@]1(c1ccc(C#N)cc1)O2", "note": "(racemic) [188F, Rac-4-((4bR,5R,6R,7S,7aR)-4b-hydroxy-6-(hydroxymethyl)-4-methoxy-7-phenyl-5-(((pyridin-4-ylmethyl)amino)methyl)-4b,5,6,7-tetrahydro-7aH-cyclopenta[4,5]furo[2,3-c]pyridin-7a-yl)benzonitrile]", "IC50": "< 100"},
      {"molecule": "COc1cncc2c1[C@]1(O)[C@H](O)[C@H](C(=O)N3CCN(C)CC3)[C@@H](c3ccccc3)[C@]1(c1ccc(C(F)(F)F)cc1)O2", "note": "(racemic) [283F, rac-((4bS,5R,6R,7S,7aR)-4b,5-dihydroxy-4-methoxy-7-phenyl-7a-(4-(trifluoromethyl)phenyl)-4b,6,7,7a-tetrahydro-5H-cyclopenta[4,5]furo[2,3-c]pyridin-6-yl)(4-methylpiperazin-1-yl)methanone]", "IC50": "100 to 1000"},
      {"molecule": "COc1cncc2c1[C@]1(O)[C@H](O)[C@H](CNCCF)[C@@H](c3ccccc3)[C@]1(c1ccc(C#N)cc1)O2", "note": "(racemic) [259F, Rac-4-((4bS,5R,6S,7S,7aR)-6-(((2-fluoroethyl)amino)methyl)-4b,5-dihydroxy-4-methoxy-7-phenyl-4b,5,6,7-tetrahydro-7aH-cyclopenta[4,5]furo[2,3-c]pyridin-7a-yl)benzonitrile]", "IC50": "100 to 1000"},
      {"molecule": "COc1nc(C#N)cc2c1[C@]1(O)[C@H](O)[C@H](CN3CCOCC3)[C@@H](c3ccccc3)[C@]1(c1ccc(C#N)cc1)O2", "note": "(single isomer, unassigned) [151F]", "IC50": "< 100"},
      {"molecule": "COc1ccc([C@@]23Oc4cc(C#N)cnc4[C@]2(O)[C@H](O)[C@H](C(=O)N(C)C)[C@H]3c2ccccc2)cc1", "note": "(single isomer, unassigned) [4F]", "IC50": "100 to 1000"},
      {"molecule": "COc1cncc2c1[C@]1(O)[C@H](O)[C@H](CN(C)C3CC3)[C@@H](c3ccccc3)[C@]1(c1ccc(C#N)cc1)O2", "note": "(racemic) [246F, Rac-4-((4bS,5R,6S,7S,7aR)-6-((cyclopropyl(methyl)amino)methyl)-4b,5-dihydroxy-4-methoxy-7-phenyl-4b,5,6,7-tetrahydro-7aH-cyclopenta[4,5]furo[2,3-c]pyridin-7a-yl)benzonitrile]", "IC50": "100 to 1000"},
      {"molecule": "CN(C)C(=O)[C@H]1[C@@H](O)[C@@]2(O)c3c(Cl)cncc3O[C@@]2(c2ccc(Br)cc2)[C@@H]1c1ccccc1", "note": "(racemic) [97F, Rac-(4bS,5R,6R,7S,7aR)-7a-(4-bromophenyl)-4-chloro-4b,5-dihydroxy-N,N-dimethyl-7-phenyl-4b,6,7,7a-tetrahydro-5H-cyclopenta[4,5]furo[2,3-c]pyridine-6-carboxamide]", "IC50": "100 to 1000"},
      {"molecule": "COc1cncc2c1C1(O)[C@H](O)[C@H](CNCc3cccnc3)[C@@H](c3ccccc3)[C@]1(c1ccc(C#N)cc1)O2", "note": "(mixture of isomers) [78F, Rac-4-((5R,6S,7S,7aR)-4b,5-dihydroxy-4-methoxy-7-phenyl-6-(((pyridin-3-ylmethyl)amino)methyl)-4b,5,6,7-tetrahydro-7aH-cyclopenta[4,5]furo[2,3-c]pyridin-7a-yl)benzonitrile]", "IC50": "100 to 1000"},
      {"molecule": "COc1cncc2c1[C@]1(O)[C@H](O)[C@H](CN(C)Cc3ccccc3)[C@@H](c3ccccc3)[C@]1(c1ccc(C#N)cc1)O2", "note": "(racemic) [76F, Rac-4-((4bS,5R,6S,7S,7aR)-6-((benzyl(methyl)amino)methyl)-4b,5-dihydroxy-4-methoxy-7-phenyl-4b,5,6,7-tetrahydro-7aH-cyclopenta[4,5]furo[2,3-c]pyridin-7a-yl)benzonitrile]", "IC50": "< 100"},
      {"molecule": "N#Cc1ccc([C@@]23Oc4cc(Cl)cnc4[C@]2(O)[C@H](O)[C@H](CN2CCCC2)[C@H]3c2ccccc2)cc1", "note": "(racemic) [41Fb, rac-4-((5aR,6S,7S,8R,8aS)-3-chloro-8,8a-dihydroxy-6-phenyl-7-(pyrrolidin-1-ylmethyl)-6,7,8,8a-tetrahydro-5aH-cyclopenta[4,5]furo[3,2-b]pyridin-5a-yl)benzonitrile]", "IC50": "100 to 1000"},
      {"molecule": "COc1nc(C#N)cc2c1[C@]1(O)[C@H](O)[C@H](CN(C)C)[C@@H](c3ccccc3)[C@]1(c1ccc(C#N)cc1)O2", "note": "(single isomer, unassigned) [139F]", "IC50": "< 100"}
    ]},
    {"tested_on": "MDA-MB-231 human breast cancer cells", "assay": "Cell proliferation assay (CellTiter-Glo, 72 hours treatment)", "assay_type": "cell-based", "conditions": "MDA-MB-231 cells, 72 hours at 37° C., CellTiter-Glo; read-out: MDA-MB-231 cell proliferation assay (IC50)", "procedure,_shortened": "as §1", "units": {"IC50": "nM"}, "values": [
      {"molecule": "CN(C)C[C@H]1[C@@H](O)[C@@]2(O)c3ncc(C#N)cc3O[C@@]2(c2ccc(C#N)cc2)[C@@H]1c1ccccc1", "note": "[105F]", "IC50": "> 1000"}
    ]}
  ]
}
